Read-outs that look alike come from different tables or passages of the source.
Legend:
anaesthetized dog = assay: Antiangorous activity on anaesthetized dog: consumption of oxygen in the left ventricule and cardiac effort (KATZ's index); assay type: in vivo; settings: for inhibition in vivo at 0.625 mg/kg / inhibition in vivo at 2.3 mg/kg / inhibition in vivo at 0.14 mg/kg / inhibition in vivo at 0.54 mg/kg / inhibition in vivo at 2.5 mg/kg / inhibition in vivo at […] / inhibition in vivo at 0.6 mg/kg / inhibition in vivo at 5 mg/kg: Canis lupus familiaris, iv; for inhibition in vivo at […]: 0.15 mg/kg i.v. slow perfusion
Experimental: The antiangorous activity was tested on an anaesthetized dog (sodium pentobarbital 30 mg/kg/i.v.).
The consumption of oxygen in the left ventricule was estimated by the product of the coronary venous flow and the coronary arteriovenous difference in oxygen (% volume).
The coronary venous flow was measured at the coronary venous sinus by means of a modified Morawitz cannula, introduced under radioscopic control.
The cardiac effort was estimated according to KATZ's index, by the product of the average arterial pressure and the cardiac frequency.
The cardiac frequency was estimated from the electrocardiogram recorded with D2 derivation.
It should be noted that the compounds tested were injected intravenously with slow perfusion.

in vivo = settings: for mortality: read-out: Toxicity (Mortality); for LD50: read-out: Toxicity: LD50
Text: *LD50 or percentage of mortality which is given between brackets

[1] = 0.625 mg/kg i.v. slow perfusion
[2] = 0.625 mg/kg i.v. slow perfusion, read-out: Diminution in consumption of O2
[3] = 0.625 mg/kg i.v. slow perfusion, read-out: Diminution in the cardiac effort (IK)
[4] = 2.5 mg/kg i.v. slow perfusion, read-out: Diminution in consumption of O2
[5] = 2.5 mg/kg i.v. slow perfusion, read-out: Diminution in the cardiac effort (IK)

SMILES: COc1cc(/C=C/C(=O)N2CCN(CC(O)COc3ccc(NC(C)=O)c4c3OCCCO4)CC2)cc(OC)c1OC (stereo not drawn) [780 393]
- Diminution in consumption of O2: in time (anaesthetized dog; [1]): 30 min
- Diminution in the cardiac effort (IK): in time (anaesthetized dog; [1]): 30 min
- inhibition in vivo at 0.625 mg/kg (anaesthetized dog; [2]): 24%
- inhibition in vivo at 0.625 mg/kg (anaesthetized dog; [3]): 45%
- mortality (in vivo; iv, 400 mg/kg i.v.): 10%

SMILES: COc1cc(/C=C/C(=O)N2CCN(CC(O)COc3ccc([N+](=O)[O-])cc3)CC2)cc(OC)c1OC (stereo not drawn) [760 538]
- Diminution in consumption of O2: in time (anaesthetized dog; 2.3 mg/kg i.v. slow perfusion): 15 min
- Diminution in the cardiac effort (IK): in time (anaesthetized dog; 2.3 mg/kg i.v. slow perfusion): 30 min
- inhibition in vivo at 2.3 mg/kg (anaesthetized dog; 2.3 mg/kg i.v. slow perfusion, read-out: Diminution in consumption of O2): 48%
- inhibition in vivo at 2.3 mg/kg (anaesthetized dog; 2.3 mg/kg i.v. slow perfusion, read-out: Diminution in the cardiac effort (IK)): 37%
- mortality (in vivo; iv, 185 mg/kg i.v.): 10%

SMILES: CCOC(=O)Cc1ccc(OCC(O)CN2CCN(C(=O)/C=C/c3cc(OC)c(OC)c(OC)c3)CC2)c2c1OCCO2 (stereo not drawn) [770 312]
- Diminution in consumption of O2: in time (anaesthetized dog; 0.14 mg/kg i.v. slow perfusion): 30 min
- inhibition in vivo at 0.14 mg/kg (anaesthetized dog; 0.14 mg/kg i.v. slow perfusion, read-out: Diminution in consumption of O2): 30%
- inhibition in vivo at 0.14 mg/kg (anaesthetized dog; 0.14 mg/kg i.v. slow perfusion, read-out: Diminution in the cardiac effort (IK)): 9%
- LD50 (in vivo; iv): 259 mg/kg

SMILES: COc1cc(/C=C/C(=O)N2CCN(CC(O)COc3ccc(NC(=O)c4ccccc4)c4c3OCCO4)CC2)cc(OC)c1OC (stereo not drawn) [770 529]
- Diminution in consumption of O2: in time (anaesthetized dog; [1]): 30 min
- Diminution in the cardiac effort (IK): in time (anaesthetized dog; [1]): 30 min
- inhibition in vivo at 0.625 mg/kg (anaesthetized dog; [2]): 56%
- inhibition in vivo at 0.625 mg/kg (anaesthetized dog; [3]): 29%
- mortality (in vivo; po, p.o.: 2000 mg/kg): 22%

SMILES: CNC(=O)c1ccc(OCC(O)CN2CCN(C(=O)/C=C/c3cc(OC)c(OC)c(OC)c3)CC2)c2c1OCCO2 (stereo not drawn) [760 710]
- Diminution in consumption of O2: in time (anaesthetized dog; 0.54 mg/kg i.v. slow perfusion): 60 min
- Diminution in the cardiac effort (IK): in time (anaesthetized dog; 0.54 mg/kg i.v. slow perfusion): 30 min
- inhibition in vivo at 0.54 mg/kg (anaesthetized dog; 0.54 mg/kg i.v. slow perfusion, read-out: Diminution in consumption of O2): 64%
- inhibition in vivo at 0.54 mg/kg (anaesthetized dog; 0.54 mg/kg i.v. slow perfusion, read-out: Diminution in the cardiac effort (IK)): 36%
- mortality (in vivo; iv, 345 mg/kg i.v.): 70%

SMILES: CNC(=O)Nc1ccc(OCC(O)CN2CCN(C(=O)/C=C/c3cc(OC)c(OC)c(OC)c3)CC2)cc1C (stereo not drawn) [770 898]
- Diminution in consumption of O2: in time (anaesthetized dog; 2.5 mg/kg i.v. slow perfusion): 45 min
- Diminution in the cardiac effort (IK): in time (anaesthetized dog; 2.5 mg/kg i.v. slow perfusion): 38 min
- inhibition in vivo at 2.5 mg/kg (anaesthetized dog; [4]): 45%
- inhibition in vivo at 2.5 mg/kg (anaesthetized dog; [5]): 36%
- mortality (in vivo; iv, 400 mg/kg i.v.): 0%

SMILES: COc1cc(/C=C/C(=O)N2CCN(CC(O)COc3ccc(CC(N)=O)c4c3OCCO4)CC2)cc(OC)c1OC (stereo not drawn) [770 386]
- Diminution in consumption of O2: in time (anaesthetized dog; [1]): 30 min
- Diminution in the cardiac effort (IK): in time (anaesthetized dog; [1]): 30 min
- inhibition in vivo at 0.625 mg/kg (anaesthetized dog; [2]): 41%
- inhibition in vivo at 0.625 mg/kg (anaesthetized dog; [3]): 20%
- mortality (in vivo; iv, 400 mg/kg i.v.): 20%

SMILES: COc1cc(/C=C/C(=O)N2CCN(CC(O)COc3ccc(C(C)=O)cc3C)CC2)cc(OC)c1OC (stereo not drawn) [770 993, 1-[3-(2-methyl-4-acetyl)phenyl-2-hydroxy]-propyl-4-(3,4,5-trimethoxycinnamoyl)piperazine chlorhydrate]
- Diminution in consumption of O2: in time (anaesthetized dog; 2.5 mg/kg i.v. slow perfusion): 23 min
- Diminution in the cardiac effort (IK): in time (anaesthetized dog; 2.5 mg/kg i.v. slow perfusion): 13 min
- inhibition in vivo at 2.5 mg/kg (anaesthetized dog; [4]): 53%
- inhibition in vivo at 2.5 mg/kg (anaesthetized dog; [5]): 15%
- LD50 (in vivo; iv): 10 mg/kg

SMILES: COc1cc(/C=C/C(=O)N2CCN(CC(O)COc3ccc(C(C)=O)c4c3OCCO4)CC2)cc(OC)c1 (stereo not drawn) [770 538]
- Diminution in consumption of O2: in time (anaesthetized dog; 2.5 mg/kg i.v. slow perfusion): 15 min
- Diminution in the cardiac effort (IK): in time (anaesthetized dog; 2.5 mg/kg i.v. slow perfusion): 25 min
- inhibition in vivo at 2.5 mg/kg (anaesthetized dog; [4]): 54%
- inhibition in vivo at 2.5 mg/kg (anaesthetized dog; [5]): 28%
- LD50 (in vivo; iv): 198 mg/kg

SMILES: CCNC(=O)Nc1ccc(OCC(O)CN2CCN(C(=O)/C=C/c3cc(OC)c(OC)c(OC)c3)CC2)c2c1OCCO2 (stereo not drawn) [770 307]
- inhibition in vivo at […] (anaesthetized dog; read-out: Diminution in consumption of O2): 43%
- inhibition in vivo at […] (anaesthetized dog; read-out: Diminution in the cardiac effort (IK)): 11%
- mortality (in vivo; iv, 367 mg/kg i.v.): 10%

SMILES: CCCC(=O)c1ccc(OCC(O)CN2CCN(C(=O)/C=C/c3cc(OC)c(OC)c(OC)c3)CC2)c2c1OCCO2 (stereo not drawn) [760 866]
- Diminution in consumption of O2: in time (anaesthetized dog; 0.6 mg/kg i.v. slow perfusion): 30 min
- Diminution in the cardiac effort (IK): in time (anaesthetized dog; 0.6 mg/kg i.v. slow perfusion): 30 min
- inhibition in vivo at 0.6 mg/kg (anaesthetized dog; 0.6 mg/kg i.v. slow perfusion, read-out: Diminution in consumption of O2): 54%
- inhibition in vivo at 0.6 mg/kg (anaesthetized dog; 0.6 mg/kg i.v. slow perfusion, read-out: Diminution in the cardiac effort (IK)): 20%
- mortality (in vivo; iv, 360 mg/kg i.v.): 30%

SMILES: COc1cc(/C=C/C(=O)N2CCN(CC(O)CSc3ccc(C)cc3)CC2)cc(OC)c1OC (stereo not drawn) [770 059]
- Diminution in consumption of O2: in time (anaesthetized dog; 5 mg/kg i.v. slow perfusion): 15 min
- Diminution in the cardiac effort (IK): in time (anaesthetized dog; 5 mg/kg i.v. slow perfusion): 15 min
- inhibition in vivo at 5 mg/kg (anaesthetized dog; 5 mg/kg i.v. slow perfusion, read-out: Diminution in consumption of O2): 64%
- inhibition in vivo at 5 mg/kg (anaesthetized dog; 5 mg/kg i.v. slow perfusion, read-out: Diminution in the cardiac effort (IK)): 12%
- LD50 (in vivo; iv): 91 mg/kg
